Patent publication EP4702986A1, “POLYPEPTIDE AND USE THEREOF” (Biocells (Beijing) Biotech Co., Ltd., priority 2023, dated 2024)
Read-outs that look alike come from different tables or passages of the source. Numbered stars: 1 amine (or outer) side, 2 acyl side, 3 side chain; on linkers, the order of the positions; unused ones are H or OH. Side chains are listed from the residue outwards. Peptide text beside a SMILES is read from it. * marks the point of attachment. C18 diacid = O=C(O)CCCCCCCCCCCCCCCCC(=O)*; γGlu = O=C(O)[C@H](CCC(=O)[*:2])N[*:1]; Fumaroyl = O=C(O)/C=C/C(=O)*; Suc = O=C(CCC(=O)[*:2])[*:1]; Lauroyl = CCCCCCCCCCCC(=O)*; AEEA = NCCOCCOCC(=O)O

Legend:
BDNF [1] = experiment: BDNF protein expression in infarcted brain tissue, mouse model of tMCAO (ELISA); type: in vivo, C57/6J mice
Method: Fifty-one male C57/6J mice, aged 10-12 weeks, weighing 25-30g, were housed for at least 2 days prior to the experiment to adapt to the environment (SPF Biotech). A mouse model of tMCAO was established. The mice were anesthetized with isoflurane. Their body temperature was controlled by a thermostatic blanket and monitored and maintained at 37±0.5°C. A middle incision was made in the skin on the mouse skull, the skin was pulled outward, and a bendable microneedle tip was fixed to the surface of the left parietal bone of the mouse skull. A middle incision on the neck was made to separate the right common carotid artery (CCA), external carotid artery (ECA) and internal carotid artery (ICA). […] To ensure a sustained and successful occlusion of the middle cerebral artery, we monitored local cerebral blood flow of all stroke animals with a laser speckle flowmeter (generally, the blood flow can be reduced by 40-60% after stabilized). […]
Successfully modeled C57 tMCAO mice were randomly assigned into three groups: a normal saline group, a 30µg/Kg BX229-Na administration group, and a 100µg/Kg BX229-Na administration group. […] Changes in protein markers VEGF-A and BDNF in each experimental group were detected by ELISA. […]

BDNF [2] = experiment: BDNF protein expression in infarcted brain tissue of tMCAO mice (ELISA); type: in vivo, C57/6J mice; settings: for BDNF: 3 times (D1, D3, D6), infarcted brain tissue after D14; for expression level of BDNF protein compared with the normal saline group: tMCAO mice
Method: (§1) Fifty-one male C57/6J mice, aged 10-12 weeks, weighing 25-30g, were housed for at least 2 days prior to the experiment to adapt to the environment (SPF Biotech). A mouse model of tMCAO was established. The mice were anesthetized with isoflurane. Their body temperature was controlled by a thermostatic blanket and monitored and maintained at 37±0.5°C. A middle incision was made in the skin on the mouse skull, the skin was pulled outward, and a bendable microneedle tip was fixed to the surface of the left parietal bone of the mouse skull. A middle incision on the neck was made to separate the right common carotid artery (CCA), external carotid artery (ECA) and internal carotid artery (ICA). According to the method of Longa (Longa et al., 1989), a silicone rubber-coated suture (RWD Life Science, suture end diameter: 0.22 mm-0.23 mm, MSMC23B120PK50) was introduced through an external carotid artery incision surgery and was slowly advanced through the internal carotid artery towards the origin of the middle cerebral artery. To ensure a sustained and successful occlusion of the middle cerebral artery, we monitored local cerebral blood flow of all stroke animals with a laser speckle flowmeter (generally, the blood flow can be reduced by 40-60% after stabilized). The suture was removed 45 min after the insertion for modeling, and the incision was sutured. Afterward, 1 mL of 37°C warm saline was injected subcutaneously, and the mice were placed on a heating pad until recovery. To alleviate pain, the mice were injected subcutaneously with Tilidine after awakening from anesthesia.
(§2) Successfully modeled C57 tMCAO mice were randomly assigned into three groups: a normal saline group, a 30µg/Kg BX229-Na administration group, and a 100µg/Kg BX229-Na administration group. Each group was administered once subcutaneously in the neck 4.5 hours after occlusion (D1), and was administered once more at the same sites and at the same time points on D3 and D6. A sham group included 6 animals. 2 mL/kg was administrated subcutaneously in the neck. Garcia JH scoring was made on D7 and D14 after administration. After the completion of the scoring on D14, the mice were euthanized and harvested for infarcted brain tissues, to extract total proteins. Changes in protein markers VEGF-A and BDNF in each experimental group were detected by ELISA. Table 19: Experimental Grouping and Dosing Regimen

VEGF-A = VEGF-A protein expression in infarcted brain tissue of tMCAO mice (ELISA); type: in vivo, C57/6J mice; settings: for VEGF-A: 3 times s.c. (D1, D3, D6), brain tissue after D14
Method: as §1, §2

rat model of pMACO [3] = experiment: Rotarod test in rat model of pMACO; type: in vivo, SD rats; settings: IRL1620 5 µg/Kg, BX34 7 µg/Kg, BX48 5 µg/Kg, administered 3 times (2, 4, 6 hours after modeling), n=10
Text: Male SD rats weighing 280-300 g were used and acclimated for at least 3 days. Focal cerebral ischemia was induced by middle cerebral artery occlusion with a suture method under isoflurane anesthesia. The animals were placed in a secure supine position, and a midline incision was made to expose the right common carotid artery, external carotid artery, and internal carotid artery. A 4.0 monofilament nylon suture was advanced from the external carotid artery toward the internal carotid artery lumen until resistance was felt ( ~ 20 mm), indicating middle cerebral artery occlusion. The nylon filament was allowed to stay in place to create a permanent model of focal cerebral ischemia. Successfully modeled rats were randomly assigned to four groups: a solvent (normal saline) group (n=10), a 7 µg/Kg BX-34 group (n=10), a 5 µg/Kg BX-48 group (n=10), and a 5 µg/Kg IRL1620 group (n=10). Each group was administered once at 2 hours, 4 hours, and 6 hours, respectively, after modeling, for a total of three administrations. Grip strength was measured before administration and at 24 hours and on D3 and D7 after administration. A rotarod test and a foot fault test were performed before administration and at 24 hours and day 7 after administration. During the rotarod test, time and distance were recorded, and ratios of the measurement at 24 hours and the measurement at D7 to the pretest measurement were used as analysis indicators. The specific method for the foot fault test was as follows. The rats were placed on an elevated grid floor (29×29 cm, grid opening: 3 cm^2) for 2 minutes, and the number of foot faults (when a forelimb fell through the grid) and the total steps were recorded. % Foot fault = (the number of forelimb faults/the total number of forelimb steps) × 100.

rat model of pMACO [4] = experiment: Foot fault test in rat model of pMACO; type: in vivo, SD rats; settings: rat pMCAO; D7 after administration; comparison in words
SD rats = test system: SD rats
Method: Male SD rats were anesthetized with isoflurane, and their neck hairs were shaved. A midline incision was made on the neck to expose the trachea. A ventilator and anesthesia machine for small animals were turned on, with concentration of an anesthetic gas set to 1.2, and its exit channel connected to an inlet of the ventilator. Tidal volume of the ventilator was set to 2 mL, the respiratory rate was 90 breaths/minute, and the respiratory ratio was 1:2. An outlet end of the ventilator was connected to a plastic hose, which was inserted into the rat's airway.
A machine and a software of a biological signal data acquisition and analysis system were turned on. One end of a data acquisition plate was connected to the plastic hose, and the other end was connected to a collector valve connected with a 1-mL syringe. The syringe was filled with heparinized saline, which was injected into the data acquisition plate to expel the air in the entire space until the heparinized saline flowed out from the other end of the plastic hose. The right common carotid arteries of the rats were isolated. A dead knot was made at the distal end and a slipknot at the proximal end of a right common carotid artery. A 1/2-sized incision was made in the artery between the knot with a microscissor, and the plastic hose with heparinized saline was inserted into the incision and fixed to prevent back-and-forth movement. The initial value of the blood pressure was set to zero with the zero-adjustment valve of the biological signal data acquisition and analysis system. The slipknot at the proximal end of the common carotid artery was untied, and real-time blood pressure data of the animal appeared on the software. […] The dosages of IRL1620, BX34, and BX229 were 5 µg/Kg, 42 µg/kg, and 6.6 µg/Kg, respectively.

[5] = background statement; cited from earlier work
[6] = SD rats, tail vein, IRL620 5 µg/Kg, BX34 42 µg/Kg, BX229 6.6 µg/Kg
[7] = intravenous, IRL1620 5 µg/Kg, BX34 42 µg/Kg, BX229 6.6 µg/Kg

Structure (SMILES): CCCCCCCCCCCC(=O)N[C@@H](CCC(=O)NCCOCCOCC(=O)NCCCC[C@H](NC(=O)[C@H](Cc1c[nH]cn1)NC(=O)[C@H](C)NC(=O)[C@H](Cc1ccccc1)NC(=O)[C@H](Cc1ccc(O)cc1)NC(=O)[C@@H](NC(=O)[C@H](C)NC(=O)[C@H](CCC(=O)O)NC(=O)[C@H](CCC(=O)O)NC(=O)[C@H](CC(=O)O)NC(=O)/C=C/C(=O)O)C(C)C)C(=O)N[C@@H](CC(=O)O)C(=O)N[C@H](C(=O)N[C@H](C(=O)N[C@@H](Cc1c[nH]c2ccccc12)C(=O)O)[C@@H](C)CC)C(C)C)C(=O)O [BX229-Na] (Fumaroyl-DEEAVYFAHK([AEEA-γGlu-Lauroyl])DVIW-OH)
- expression level of BDNF protein compared with the normal saline group (BDNF [1]; 30µg/Kg three-dose group): higher than that in the normal saline group
- expression level of BDNF protein compared with the normal saline group (BDNF [1]; 100µg/Kg three-dose group): higher than that in the normal saline group
- BDNF (BDNF [2]; 30 µg/Kg subcutaneously): 1103 ± 582 pg/mL
- BDNF (BDNF [2]; 100 µg/Kg subcutaneously): 1334 ± 665 pg/mL
- expression level of BDNF protein compared with the normal saline group (BDNF [2]; 30µg/Kg three-dose group): higher
- expression level of BDNF protein compared with the normal saline group (BDNF [2]; 100µg/Kg three-dose group): higher
- expression level of VEGF-A protein compared with the normal saline group (VEGF-A; 30µg/Kg three-dose group): higher
- VEGF-A (VEGF-A; 30 µg/Kg): 441 ± 102 pg/mL
- expression level of VEGF-A protein compared with the normal saline group (VEGF-A; 100µg/Kg three-dose group): significantly different
- VEGF-A (VEGF-A; 100 µg/Kg): 562 ± 56 pg/mL

Structure (SMILES): CC[C@H](C)[C@H](NC(=O)[C@H](CC(=O)O)NC(=O)[C@H](CCCCNC(=O)COCCOCCNC(=O)COCCOCCNC(=O)CC[C@H](NC(=O)CCCCCCCCCCCCCCCCC(=O)O)C(=O)O)NC(=O)[C@H](Cc1c[nH]cn1)NC(=O)[C@H](C)NC(=O)[C@H](Cc1ccccc1)NC(=O)[C@H](Cc1ccc(O)cc1)NC(=O)[C@@H](NC(=O)[C@H](C)NC(=O)[C@H](CCC(=O)O)NC(=O)[C@H](CCC(=O)O)NC(=O)[C@H](CC(=O)O)NC(=O)/C=C/C(=O)O)C(C)C)C(=O)N[C@H](C(=O)N[C@@H](Cc1c[nH]c2ccccc12)C(=O)O)[C@@H](C)CC [BX-34] (Fumaroyl-DEEAVYFAHK([AEEA-AEEA-γGlu-C18 diacid])DIIW-OH)
- Rotarod Test 7D/pretest (%) Distance, m (rat model of pMACO [3]; 7D relative to pretest): 49.60%±49.48%
- Rotarod Test 7D/pretest (%) Time, s (rat model of pMACO [3]; 7D relative to pretest): 65.5%±29.94%
- Rotarod Test 7D/pretest (%) Velocity (rat model of pMACO [3]; 7D relative to pretest): 62.27%±34.12%
- Rotarod Test 24h/pretest (%) Distance, m (rat model of pMACO [3]; 24h relative to pretest): 28.25%±44.00%
- Rotarod Test 24h/pretest (%) Time, s (rat model of pMACO [3]; 24h relative to pretest): 38.34%±38.08%
- Rotarod Test 24h/pretest (%) Velocity (rat model of pMACO [3]; 24h relative to pretest): 39.09%±35.03%
- percentages of foot faults (rat model of pMACO [4]): lower than that of the saline group and the IRL1620 group
- maximum extent of decrease in blood pressure, of the baseline blood pressure (SD rats; rat, in vivo): 9.5%±1.7%
- time to the lowest blood pressure (SD rats; rat, in vivo): 20 to 35 min
- Maximum percentage of blood pressure reduction relative to baseline blood pressure (n = 3) (SD rats; rat, in vivo, iv): 9.5%±1.7%
- Time from baseline blood pressure to the lowest blood pressure (SD rats; rat, in vivo, iv): 20 to 35 min

Structure (SMILES): CC[C@H](C)[C@H](NC(=O)[C@H](CC(=O)O)NC(=O)[C@H](CC(C)C)NC(=O)[C@H](Cc1c[nH]cn1)NC(=O)[C@H](C)NC(=O)[C@H](Cc1ccccc1)NC(=O)[C@H](Cc1ccc(O)cc1)NC(=O)[C@@H](NC(=O)[C@H](C)NC(=O)[C@H](CCC(=O)O)NC(=O)[C@H](CCC(=O)O)NC(=O)[C@H](CC(=O)O)NC(=O)CCC(=O)O)C(C)C)C(=O)N[C@H](C(=O)N[C@@H](Cc1c[nH]c2ccccc12)C(=O)O)[C@@H](C)CC [IRL1620, reference compound] (Suc-DEEAVYFAHLDIIW-OH)
- half-life [5]: less than 2 minutes
- maximum extent of decrease in blood pressure, of the baseline blood pressure (SD rats; [6]): 16.1%±2.4%
- time to the lowest blood pressure (SD rats; [6]): ≤ 2 min
- Maximum percentage of blood pressure reduction relative to baseline blood pressure (n = 3) (SD rats; [7]): 16.1%±2.4%
- Time from baseline blood pressure to the lowest blood pressure (SD rats; [7]): Less than 2 mins
